Data as given in US20230405145A1, “IRON OXIDE NANOPARTICLE FOR SUPPRESSING DRUG-RESISTANT GENE FOR THE TREATMENT OF GLIOBLASTOMA” (University of Washington, priority 2020, published 2023).

Legend:
primary brain tumors = details: cited from earlier work
[1] = systemic administration; cited from earlier work
[2] = tested on: GBM6 orthotopic xenograft; assay: Kaplan-Meier survival, orthotopic GBM6 xenograft; format: in vivo, NOD-SCID mice
Procedure: The mice were closely monitored during the entire treatment period until the time of euthanasia. […] Mice treated with NP-siMGMT-CTX extended their lifespan for 18.3 days while mice treated with TMZ alone extended their lifespan for 2.3 days.
Orthotopic xenograft tumor model and therapy response experiments. All xenograft therapy evaluations were conducted using a GBM6 orthotopic tumor model. The human GBM6 tumor was provided by the Mayo Clinic. The procedure for establishing intracranial tumors was described previously (B. L. Carlson, J. L. Pokorny, M. A. Schroeder, J. N. Sarkaria, Current Protocols in Pharmacology 2011, 52, 1; B. L. Carlson, P. T. Grogan, A. C. Mladek, M. A. Schroeder, G. J. Kitange, P. A. Decker, C. Giannini, W. Wu, K. A. Ballman, C. D. James, J. N. Sarkaria, International Journal of Radiation Oncology, Biology, Physics 2009, 75, 212). In brief, flank GBM6 tumor xenografts were harvested, mechanically disaggregated and stereotaxically injected into the frontal lobe of 6-week-old female NOD-SCID mice (Jackson Laboratories). […] At about 4 weeks post-tumor implantation, mice with similar tumor size as evaluated by MRI were randomized to one treatment group treated with NP-siMGMT-CTX+TMZ, and three control groups treated with either NP-siGFP-CTX+TMZ, TMZ only, or untreated. […]

A1235 cells = assay: Clonogenic assay, MGMT-deficient A1235 cells; details: A1235 (GBM cell line)
SF763 cells = assay: Clonogenic assay, MGMT-proficient SF763 cells; details: SF763 (GBM cell line)
GBM6 cells = assay: Alamar blue viability assay, GBM6 stem-like cells; details: GBM6 (cancer stem cell)
Procedure: Cell survival assays. Alamar blue assay was used to evaluate cell viability following the manufacture's protocol (Life Technologies). […] AB assay was conducted at 2 days after transfection. Cells were washed with PBS (pH 7.4) three times before adding 10% AB in complete growth medium to the wells. After incubation for 1 hr, the AB solution was transferred to a 96-well plate, and fluorescent emissions at an excitation wavelength of 550 nm and an emission wavelength of 590 nm were read on a SpectraMax M5 microplate reader (Molecular Devices).

chlorotoxin [CTX]
primary brain tumors targeted, of those examined (primary brain tumors): 74 out of 79

Nc1nc(OCc2ccccc2)c2nc[nH]c2n1 [BG, O^6-benzylguanine]
toxicity in combination with TMZ [1]: severe myelotoxicity

Cn1nnc2c(C(N)=O)ncn2c1=O [TMZ, temozolomide]
median survival ([2]; NPs given with TMZ per FIG. 5A schedule, TMZ 100 mg/kg oral): 40.8 ± 2.7 days
extension of lifespan ([2]; versus untreated mice): 2.3 days
TMZ required for effective treatment (A1235 cells): 10 µM
TMZ required for effective treatment (SF763 cells): 400 µM
TMZ required for effective treatment (GBM6 cells): 4 mM
